This is an account of results in patent US8143253B2, “Organic compounds” (Novartis AG, priority 2007, dated 2012).

The target in the first series is T1, human ALK5 (ALK5 T204D kinase domain) (Homo sapiens, UniProt P36897, T204D).
T1 construct: The kinase domain of human ALK5 (amino acids 200-503) is fused to an N-terminal histidine tag; made in house; host or cells: insect cells (baculovirus)
T1 sequence (P36897 200-503 T204D): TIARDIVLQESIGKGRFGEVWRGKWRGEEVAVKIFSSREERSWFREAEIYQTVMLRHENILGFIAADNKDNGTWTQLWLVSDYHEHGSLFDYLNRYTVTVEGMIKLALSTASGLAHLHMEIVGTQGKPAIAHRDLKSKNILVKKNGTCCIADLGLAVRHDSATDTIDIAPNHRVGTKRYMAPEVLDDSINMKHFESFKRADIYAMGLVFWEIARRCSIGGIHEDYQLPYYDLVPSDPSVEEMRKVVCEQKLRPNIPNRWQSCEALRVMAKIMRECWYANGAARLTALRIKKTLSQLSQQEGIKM
The experiment in a line: ALK5 kinase activity, radiolabelled phosphate [33P] incorporation into casein. It counts as biochemical. Particulars: casein substrate, 1 μM unlabelled ATP. As for the experimental part: The kinase activity of ALK5 is assessed by measuring radiolabelled phosphate [33P] incorporation in to the generic substrate, casein. The kinase domain of human ALK5 (amino acids 200-503) is fused to an N-terminal histidine tag. The kinase activity of ALK5 is rendered constitutive via point mutation at amino acid 204 (threonine to aspartate modification, ALK5 T204D) and the kinase construct is engineered to be expressed from a baculovirus expression construct in insect cells. The purified, recombinantly-expressed histidine-tagged ALK5 T204D protein is dissolved at 5.4 mg/ml in 50 mM Tris-HCl pH 8.0, 150 mM NaCl, 5 mM DTT. ALK5 T204D is dissolved to 2.5 μg/ml in assay buffer (Assay buffer: 20 mM Tris-HCl pH 7.4, 10 mM MgCl2, 2 mM MnCl2) on the day of use.
Test compounds and reference compounds are dissolved in assay buffer without DTT containing 5% (v/v) DMSO. Stock solutions of test and reference compounds are diluted in assay buffer with DTT (1.25 mM) containing 4.5% (v/v) DMSO. 10 μl of test or reference compound are added to the corresponding wells of 96 well U-bottomed plate. Total enzyme activity is determined by measuring ALK5 T204D activity in the absence of ALK5 kinase inhibitor reference compounds. Non-specific binding (NSB) is determined by measuring the activity of ALK5 T204D in the presence of ALK5 kinase inhibitor reference compounds. 10 μl of dephosphorylated casein stock solution (dephosphorylated casein is dissolved in ddH2O at 20 mg/ml) is added per well (200 μg/well final assay concentration). 20 μl of ALK5 T204D (2.5 μg/ml solution) is added per well (50 ng/well final assay concentration). The plates are left to incubate at room temperature for 10 minutes.
10 μl of ATP mix is added to the well to initiate the reaction (0.66 nM [^33P]ATP/1 μM unlabelled ATP/well final assay concentration). The ATP mix is prepared as follows, unlabelled ATP (3 mM) is dissolved in ddH2O and pH adjusted to 7.4. The stock concentration of [^33P]ATP is 10 μCi/μl. The corresponding volume of [^33P]ATP is added to unlabelled ATP solution such that the final assay concentration per well is 0.1 μCi. Following addition of the ATP mix, the plates are incubated at room temperature for 50 minutes. The kinase reaction is terminated by the addition of 50 μL Stop Buffer (20 mM Tris-HCl pH 7.4, 10 mM EDTA).
75 μl/well from the reaction plate is transferred to a Multiscreen-IP plate (MultiScreen-IP plates are prepared by added 50 μL of 70% (v/v) ethanol per well and incubated for 5 minutes at room temperature. The ethanol is removed by aspiration via a MultiScreen HTS Vacuum Manifold unit (Millipore, Cat no: MSVMHT500). The plates are washed twice by adding 200 μl/well ddH2O). The MultiScreen-IP plate is incubated at room temperature for 30 minutes to allowing binding of casein to the plate. The MultiScreen-IP plates are washed three times by adding 200 μl/well 100 mM phosphoric acid solution and the gasket is carefully removed from the back of the MultiScreen-IP plate and the plate dried in the oven for 30 minutes. The MultiScreen-IP plate is backsealed, 50 μL of Microscint™ 20 is added, then the plates are topsealed and radiolabelled casein detected and quantified on a TopCount™ plate-reader using the ^33P scintillation protocol.
On to `CNC(=O)c1cccc(-c2cnn3c(-c4ccnc(-c5ccccc5)c4)cnc3c2)c1` [Example 1, N-Methyl-3-[3-(2-phenyl-pyridin-4-yl)-imidazo[1,2-b]pyridazin-7-yl]-benzamide], for which inhibition was half-maximal at 83 nM (IC50).

In turn, `CNC(=O)c1cccc(-c2cnn3c(-c4ccnc(-c5ccc(F)cc5)c4)cnc3c2)c1` [Example 6, 3-{3-[2-(4-Fluoro-phenyl)-pyridin-4-yl]-imidazo[1,2-b]pyridazin-7-yl}-N-methyl-benzamide] showed an IC50 of 139 nM.

For `Oc1cccc(-c2cnn3c(-c4cccc(-n5cccn5)c4)cnc3c2)c1` [Example 8, 3-[3-(3-Pyrazol-1-yl-phenyl)-imidazo[1,2-b]pyridazin-7-yl]-phenol], the IC50 amounted to 24 nM. Compared with the last compound, the IC50 is about 5.8-fold lower.

`c1ccc(-c2cc(-c3cnc4cc(-c5ccncc5)cnn34)ccn2)cc1` [Example 10, 3-(2-Phenyl-pyridin-4-yl)-7-pyridin-4-yl-imidazo[1,2-b]pyridazine] gave an IC50 of 28 nM.

In turn, `CS(=O)(=O)Nc1cccc(-c2cnn3c(-c4ccnc(-c5ccoc5)c4)cnc3c2)c1` [Example 14, N-{3-[3-(2-Furan-3-yl-pyridin-4-yl)-imidazo[1,2-b]pyridazin-7-yl]-phenyl}-methanesulfonamide] yielded an IC50 of 42 nM.

`c1cncc(-c2cnn3c(-c4cccc(-n5cccn5)c4)cnc3c2)c1` [Example 18, 3-(3-Pyrazol-1-yl-phenyl)-7-pyridin-3-yl-imidazo[1,2-b]pyridazine] had an IC50 of 47 nM.

As for `COc1cc(-c2cnc3cc(-c4cccnc4)cnn23)ccc1O` [Example 20, 2-Methoxy-4-(7-pyridin-3-yl-imidazo[1,2-b]pyridazin-3-yl)-phenol], the IC50 was 203 nM.

Consider `NC(=O)c1cccc(-c2cnc3cc(-c4cccc(F)c4)cnn23)c1` [Example 24, 3-[7-(3-Fluoro-phenyl)-imidazo[1,2-b]pyridazin-3-yl]-benzamide], for which the IC50 turned out to be 83 nM.

For `CCOC(=O)c1ccc(-c2cnn3c(-c4cccc(-n5cccn5)c4)cnc3c2)cc1` [Example 34, 4-[3-(3-Pyrazol-1-yl-phenyl)-imidazo[1,2-b]pyridazin-7-yl]-benzoic acid ethyl ester], 141 nM corresponded to half-maximal inhibition (IC50).

In the case of `CCCCNC(=O)c1cccc(-c2cnn3c(-c4ccnc(-c5ccccc5)c4)cnc3c2)c1` [Example 59, N-Butyl-3-[3-(2-Phenyl-pyridin-4-yl)-imidazo[1,2-b]pyridazin-7-yl]-benzamide], the midpoint of inhibition, the IC50, lay at 236 nM. This IC50 lies about 1.7-fold higher than the previous one.

In another series the test system is dimethylnitrosamine induced liver fibrosis.
Assay: not given
Particulars: rat, during the 3 weeks treatment; cited from earlier work.
`c1ccc(-c2cc(-c3cn[nH]c3-c3ccccn3)ccn2)cc1` [GW6604]: the side effects entry is recorded as “no obvious side effects”.

Still in this series, the particulars now being: rat, given therapeutically; cited from earlier work.
In the case of `c1ccc(-c2cc(-c3cn[nH]c3-c3ccccn3)ccn2)cc1` [GW6604], the “inhibited extracellular matrix deposition” value was 60% and the prevented death rate is recorded as 40%.

For orientation: IC50 means the point on the concentration scale where inhibition reaches its midpoint. Higher therefore signals lower potency.
